Source: patent USRE46856E1, “Substituted 2,3-dihydroimidazo[1,2-c]quinazoline derivatives useful for treating hyper-proliferative disorders and diseases associated with angiogenesis” (Bayer Intellectual Property GmbH, priority 2006, dated 2018)
Where a name gives a salt, the structure may show the parent alone.

System: IGF-1 induced AKT phosphorylation in A549 cells
Test: IGF-1 induced AKT phosphorylation assay (A549 cell assay)
Type: cell-based
Settings: Homo sapiens; A549 cells, 25 ng/ml IGF-1, phospho-AKT(Ser 473); read-out: average IC50 in the A549 cell assay
Description: [Determination of IC50 Values of Compounds in Cell Based Assays of PI3K Activity] 96-well collagen treated clear bottom/black sided Costar plates were purchased from CORNING LIFE SCIENCES (Corning, N.Y.; at.#3904). Gibco RPMI medium (Cat.#11875), Biosource anti-phospho-AKT([…]) antibody (Cat.#44-621G) and recombinant IGF-1 (Cat.#PHG0074) were purchased from INVITROGEN (Carlsbad, Calif.). The secondary donkey anti-rabbit IgG horse radish peroxidase conjugate (Cat. #N[…]) and ECL chemiluminesence reagent (Cat.#RPN2209) were purchased from […] (Buckinghamshire, UK). Cell culture tested bovine serum albumin solution (35% in DPBS; Cat.#A7979) and all other chemicals were purchased from SIGMA (St. Louis, Mo.). The Wallac Victor2 1420 Multilabel HTS Counter was purchased from […] (Wellesley, Mass.) […] All wells (except no IGF-1 controls) were then treated with 25 ng/ml IGF-1 for 10 minutes at 37° C. in a 5% CO2 incubator. Following removal of the supernatants and washing with the wells with TBS (50 mM Tris pH 8.0 containing 138 mM NaCL and 27 mM KCl), 200 µL of 3.7% formaldehyde in TBS was added to each well, and the plate was incubated at 4° C. for 10 minutes. Supernatants were once again removed and replaced with 50 μL Methanol (-20° C.) and the plate incubated at 4° C. for 5 minutes. 200 μL of 0.1% BSA in TBS was then added to each well and the plate incubated at room temperature for 1⁄2 hour. Supernatants were removed and 50 μL of a solution comprising the primary anti-phospho-AKT([…]) antibody diluted 1:250 in TBS containing 0.1% BSA was added to each well (except control/background wells). The plate was then incubated for 11⁄2 hour at room temperature. Supernatants were removed, each well was washed 3 times with 200 μL TBS, and 100 μL of a solution containing the secondary donkey anti-rabbit IgG antibody HRP-conjugate diluted 1:100 in TBS-T (TBS containing 0.1% triton). Plates were then incubated for 1 hour at room temperature. After removing the secondary antibody, each well was washed 6 times with cold TBS-T, 100 μL of ECL was added to each well, and the plate was placed on an orbital shaker for 1 minute. The plates were then read on a Wallac Victor2 1420 Multilabel HTS Counter using the luminometry window (maximum light detection is measured at […]). IC50 values were determined from the inhibition curve.

SMILES | IC50
CCNc1nc(C(=O)NC2=Nc3c(ccc(OCCCN4CCOCC4)c3OC)C3=NCCN23)cs1 [Example 80, 2-(ethylamino)-N-[7-methoxy-8-(3-morpholin-4-ylpropoxy)-2,3-dihydroimidazo[1,2-c]quinazolin-5-yl]-1,3-thiazole-4-carboxamide] | 100 to 1000 nM
COc1c(OCCCN2C[C@@H](C)O[C@@H](C)C2)ccc2c1N=C(NC(=O)c1sc(C)nc1C)N1CCN=C21 [Example 3, N-(8-{3-[(2R,6S)-2,6-dimethylmorpholin-4-yl]propoxy}-7-methoxy-2,3-dihydroimidazo[1,2-c]quinazolin-5-yl)-2,4-dimethyl-1,3-thiazole-5-carboxamide] | < 100 nM
COc1c(OCCN(C)C)ccc2c1N=C(NC(=O)c1cccnc1)N1CCN=C21 [Example 89, N-{8-[2-(dimethylamino)ethoxy]-7-methoxy-2,3-dihydroimidazo[1,2-c]quinazolin-5-yl}nicotinamide] | 100 to 1000 nM
CNC(=O)Nc1nc(C(=O)NC2=Nc3c(ccc(OCCCN4CCOCC4)c3OC)C3=NCCN23)cs1 [Example 65, N-[7-methoxy-8-(3-morpholin-4-ylpropoxy)-2,3-dihydroimidazo[1,2-c]quinazolin-5-yl]-2-{[(methylamino)carbonyl]amino}-1,3-thiazole-4-carboxamide] | > 1000 nM
COc1cncc(C(=O)NC2=Nc3c(ccc(OCCCN4CCOCC4)c3OC)C3=NCCN23)c1 [Example 100, 5-methoxy-N-[7-methoxy-8-(3-morpholin-4-ylpropoxy)-2,3-dihydroimidazo[1,2-c]quinazolin-5-yl]nicotinamide] | 100 to 1000 nM
COc1c(OCCN(C)C)ccc2c1N=C(NC(=O)c1ccc(C)nc1)N1CCN=C21 [Example 70, N-{8-[2-(dimethylamino)ethoxy]-7-methoxy-2,3-dihydroimidazo[1,2-c]quinazolin-5-yl}-6-methylnicotinamide] | < 100 nM
COc1c(OCCCN2CCOCC2)ccc2c1N=C(NC(=O)c1ccc(NC(=O)NC(C)C)nc1)N1CCN=C21 [Example 71, 6-{[(isopropylamino)carbonyl]amino}-N-[7-methoxy-8-(3-morpholin-4-ylpropoxy)-2,3-dihydroimidazo[1,2-c]quinazolin-5-yl]nicotinamide] | < 100 nM
COc1c(OCCCN2CCOCC2)ccc2c1N=C(NC(=O)c1sc(N)nc1C)N1CCN=C21 [Example 6, 2-amino-N-[7-methoxy-8-(3-morpholin-4-ylpropoxy)-2,3-dihydroimidazo[1,2-c]quinazolin-5-yl]-4-methyl-1,3-thiazole-5-carboxamide] | < 100 nM
COc1c(OCCN(C)C)ccc2c1N=C(NC(=O)c1cncnc1)N1CCN=C21 [Example 9, N-{8-[2-(dimethylamino)ethoxy]-7-methoxy-2,3-dihydroimidazo[1,2-c]quinazolin-5-yl}pyrimidine-5-carboxamide] | 100 to 1000 nM
COc1c(OCCCN2CCOCC2)ccc2c1N=C(NC(=O)c1ccc(C)nc1)N1CCN=C21 [Example 101, N-[7-methoxy-8-(3-morpholin-4-ylpropoxy)-2,3-dihydroimidazo[1,2-c]quinazolin-5-yl]-6-methylnicotinamide] | < 100 nM
CNC(=O)Nc1ccc(C(=O)NC2=Nc3c(ccc(OCCCN4CCOCC4)c3OC)C3=NCCN23)cn1 [Example 66, N-[7-methoxy-8-(3-morpholin-4-ylpropoxy)-2,3-dihydroimidazo[1,2-c]quinazolin-5-yl]-6-{[(methylamino)carbonyl]amino}nicotinamide] | < 100 nM
CNc1ncc(C(=O)NC2=Nc3c(ccc(OCCCN4CCOCC4)c3OC)C3=NCCN23)cn1 [Example 90, N-[7-methoxy-8-(3-morpholin-4-ylpropoxy)-2,3-dihydroimidazo[1,2-c]quinazolin-5-yl]-2-(methylamino)pyrimidine-5-carboxamide] | < 100 nM
CCCc1nc(N)ncc1C(=O)NC1=Nc2c(ccc(OCCCN3CCOCC3)c2OC)C2=NCCN12 [Example 7, 2-amino-N-[7-methoxy-8-(3-morpholin-4-ylpropoxy)-2,3-dihydroimidazo[1,2-c]quinazolin-5-yl]-4-propylpyrimidine-5-carboxamide] | < 100 nM
COc1c(OCCCN2CCOCC2)ccc2c1N=C(NC(=O)c1cnc(NCCO)nc1)N1CCN=C21 [Example 40, 2-[(2-hydroxyethyl)amino]-N-[7-methoxy-8-(3-morpholin-4-ylpropoxy)-2,3-dihydroimidazo[1,2-c]quinazolin-5-yl]pyrimidine-5-carboxamide] | 100 to 1000 nM
COc1c(OCCCN2CCOCC2)ccc2c1N=C(NC(=O)c1ccc(N(C)C)nc1)N1CCN=C21 [Example 73, 6-(dimethylamino)-N-[7-methoxy-8-(3-morpholin-4-ylpropoxy)-2,3-dihydroimidazo[1,2-c]quinazolin-5-yl]nicotinamide] | 100 to 1000 nM
CCN1CCOC(CCOc2ccc3c(c2OC)N=C(NC(=O)c2cccnc2)N2CCN=C32)C1 (stereo not shown) [Example 8, N-{8-[2-(4-ethylmorpholin-2-yl)ethoxy]-7-methoxy-2,3-dihydroimidazo[1,2-c]quinazolin-5-yl}nicotinamide] | < 100 nM
COc1c(OCCCN2CCOCC2)ccc2c1N=C(NC(=O)c1cnc(SC)nc1)N1CCN=C21 [Example 91, N-[7-methoxy-8-(3-morpholin-4-ylpropoxy)-2,3-dihydroimidazo[1,2-c]quinazolin-5-yl]-2-(methylthio)pyrimidine-5-carboxamide] | < 100 nM
COc1c(OCCCN2CCOCC2)ccc2c1N=C(NC(=O)c1ccsc1)N1CCN=C21 [Example 97, N-[7-methoxy-8-(3-morpholin-4-ylpropoxy)-2,3-dihydroimidazo[1,2-c]quinazolin-5-yl]thiophene-3-carboxamide] | 100 to 1000 nM
COc1c(OCCCN(C)C)ccc2c1N=C(NC(=O)c1cnc(N)nc1)N1CCN=C21 [Example 42, 2-amino-N-{8-[3-(dimethylamino)propoxy]-7-methoxy-2,3-dihydroimidazo[1,2-c]quinazolin-5-yl}pyrimidine-5-carboxamide] | < 100 nM
COc1c(OCCCN2CCOCC2)ccc2c1N=C(NC(=O)c1cnc(N)o1)N1CCN=C21 [Example 34, 2-amino-N-[7-methoxy-8-(3-morpholin-4-ylpropoxy)-2,3-dihydroimidazo[1,2-c]quinazolin-5-yl]-1,3-oxazole-5-carboxamide] | 100 to 1000 nM
COc1c(OCCN2CCCC2)ccc2c1N=C(NC(=O)c1cccnc1)N1CCN=C21 [Example 75, N-[7-methoxy-8-(2-pyrrolidin-1-ylethoxy)-2,3-dihydroimidazo[1,2-c]quinazolin-5-yl]nicotinamide] | < 100 nM
COc1c(OCCCN2CCOCC2)ccc2c1N=C(NC(=O)c1ccc(F)nc1)N1CCN=C21 [Example 78, 6-fluoro-N-[7-methoxy-8-(3-morpholin-4-ylpropoxy)-2,3-dihydroimidazo[1,2-c]quinazolin-5-yl]nicotinamide] | 100 to 1000 nM
COc1c(OCC(O)CN2CCOCC2)ccc2c1N=C(NC(=O)c1cccnc1)N1CCN=C21 (stereo not shown) [Example 16, N-[8-(2-hydroxy-3-morpholin-4-ylpropoxy)-7-methoxy-2,3-dihydroimidazo[1,2-c]quinazolin-5-yl]nicotinamide] | < 100 nM
COc1c(OCCCN2CCOCC2)ccc2c1N=C(NC(=O)c1ccc(NC(=O)C(C)C)nc1)N1CCN=C21 [Example 63, 6-(isobutyrylamino)-N-[7-methoxy-8-(3-morpholin-4-ylpropoxy)-2,3-dihydroimidazo[1,2-c]quinazolin-5-yl]nicotinamide] | < 100 nM
COc1c(OCCCN2CCOCC2)ccc2c1N=C(NC(=O)c1ccc(N)nc1)N1CCN=C21 [Example 83, 6-amino-N-[7-methoxy-8-(3-morpholin-4-ylpropoxy)-2,3-dihydroimidazo[1,2-c]quinazolin-5-yl]nicotinamide] | < 100 nM
COc1c(OCCCN2CCOCC2)ccc2c1N=C(NC(=O)c1cnccn1)N1CCN=C21 [Example 81, N-[7-methoxy-8-(3-morpholin-4-ylpropoxy)-2,3-dihydroimidazo[1,2-c]quinazolin-5-yl]pyrazine-2-carboxamide] | > 1000 nM
COc1c(OCCCN)ccc2c1N=C(NC(=O)c1cccnc1)N1CCN=C21 [Example 92, N-[8-(3-aminopropoxy)-7-methoxy-2,3-dihydroimidazo[1,2-c]quinazolin-5-yl]nicotinamide trifluoroacetate] | > 1000 nM
COc1c(OCCCN2C[C@@H](C)O[C@@H](C)C2)ccc2c1N=C(NC(=O)c1cccnc1)N1CCN=C21 [Example 2, N-(8-{3-[(2R,6S)-2,6-dimethylmorpholin-4-yl]propoxy}-7-methoxy-2,3-dihydroimidazo[1,2-c]quinazolin-5-yl)nicotinamide] | < 100 nM
